Source: US8883833B2, “Substituted benzoazole PDE4 inhibitors for treating inflammatory, cardiovascular and CNS disorders” (Decode Genetics EHF, priority 2007, dated 2014)

What was measured:
Format in all cases: biochemical
human PDE4D isozyme = human PDE4D isozyme (Homo sapiens, UniProt Q08499); experiment: IC50 for human PDE4D isozyme (Table 4); settings: read-out: IC50 for human PDE4D isozyme, hPDE4D
Method: (§1) In-vitro assay for PDE4 enzymes. The in-vitro activity of PDE4 enzymes and the in-vitro potency of therapeutic agents described in the present invention was measured using a real-time, enzyme-coupled spectrophotometric assay. By using three different coupling enzymes, the product of the PDE4 reaction is coupled to the oxidation of the reduced form β-nicotinamide adenine dinucleotide (NADH), which dissipation can be monitored spectrophotmetrically at […]. Assay description. Buffer A containing 50 mM Tris, pH 8.0, 16 mM MgCl2 and 80 mM KCl is prepared and stored at room temperature. Buffer B containing 50 mM Tris, pH 8.0 is prepared and stored at toom temperature. Stock solutions of the following reagents are prepared in Buffer B and stored at −20° C.: Adenosine-5′-triphosphate (ATP), cyclic adenosine-5′-monophosphate (cAMP), phosphoenolpyruvate (PEP) and NADH. An assay mix is prepared by mixing Buffer A, […] (TCEP), ATP, PEP, NADH, myokinase (MK), pyruvate kinase (PK), lactate dehydroganese (LDH) and PDE4 to a final volume of 20 mL, which is enough for a single 96-well assay plate. Assay mix (180 μL) and test article (10 μL) in 1:1 DMSO/H2O mixture is pre-incubated at room temperature for 10 min. The enzymatic reaction is initiated by addition of cAMP (10 μL). Final concentration of all components in the assay (200 μL/well) are as follows: 10 mM MgCl2, 50 mM KCl, 5 mM TCEP, 2.5% DMSO, 0.4 mM NADH, 1 mM PEP, 0.04 mM ATP, 5 units MK, 1 unit PK, 1 unit LDH and appropriate amount of PDE4. Reaction progress curves are monitored in a plate reader capable of measuring light absorbance at 340 nm. A decrease in light absorbance at 340 nm is due to oxidation of NADH. Positive controls containing no test article and negative controls containing no test article and no cAMP are included on every assay plate. Reaction rates are determined from the slopes of the linear portions of the progress curves. All data is percent normalized with respect to controls and presented as percent inhibition.

human PDE4B isozyme = human PDE4B isozyme (Homo sapiens, UniProt Q07343); experiment: IC50 for human PDE4B isozyme (Table 5); settings: read-out: IC50 for human PDE4B isozyme, hPDE4B
human PDE4B isozyme, sequence (Q07343 whole entry): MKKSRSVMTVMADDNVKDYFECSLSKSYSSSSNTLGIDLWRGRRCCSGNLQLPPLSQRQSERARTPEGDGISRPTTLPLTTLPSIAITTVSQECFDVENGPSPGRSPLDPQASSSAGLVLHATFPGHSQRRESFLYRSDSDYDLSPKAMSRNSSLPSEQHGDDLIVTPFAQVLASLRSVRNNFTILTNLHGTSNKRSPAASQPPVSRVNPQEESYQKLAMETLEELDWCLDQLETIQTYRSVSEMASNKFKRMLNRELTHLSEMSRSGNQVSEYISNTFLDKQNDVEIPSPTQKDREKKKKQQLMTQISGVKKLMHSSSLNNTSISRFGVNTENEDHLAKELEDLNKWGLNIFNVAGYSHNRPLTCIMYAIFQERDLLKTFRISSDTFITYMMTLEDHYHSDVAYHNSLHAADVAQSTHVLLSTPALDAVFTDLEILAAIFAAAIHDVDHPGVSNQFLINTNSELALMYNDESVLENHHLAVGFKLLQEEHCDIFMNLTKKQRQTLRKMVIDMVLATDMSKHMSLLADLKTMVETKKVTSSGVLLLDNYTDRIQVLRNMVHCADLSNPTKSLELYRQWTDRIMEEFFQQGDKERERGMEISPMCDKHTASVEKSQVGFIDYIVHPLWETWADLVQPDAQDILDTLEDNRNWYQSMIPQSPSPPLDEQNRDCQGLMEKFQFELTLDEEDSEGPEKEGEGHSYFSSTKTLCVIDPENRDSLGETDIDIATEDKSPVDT
Method: as §1

h4B1 = h4B1 (Homo sapiens, UniProt Q07343); experiment: In-vitro assay for PDE4 enzymes, real-time enzyme-coupled spectrophotometric assay (Table 3)
h4B1, sequence (Q07343 whole entry): as above
Method: as §1

h4D7 = h4D7 (Homo sapiens, UniProt Q08499); experiment: as above
h4D7, sequence (Q08499 1-748 isoform Q08499-11): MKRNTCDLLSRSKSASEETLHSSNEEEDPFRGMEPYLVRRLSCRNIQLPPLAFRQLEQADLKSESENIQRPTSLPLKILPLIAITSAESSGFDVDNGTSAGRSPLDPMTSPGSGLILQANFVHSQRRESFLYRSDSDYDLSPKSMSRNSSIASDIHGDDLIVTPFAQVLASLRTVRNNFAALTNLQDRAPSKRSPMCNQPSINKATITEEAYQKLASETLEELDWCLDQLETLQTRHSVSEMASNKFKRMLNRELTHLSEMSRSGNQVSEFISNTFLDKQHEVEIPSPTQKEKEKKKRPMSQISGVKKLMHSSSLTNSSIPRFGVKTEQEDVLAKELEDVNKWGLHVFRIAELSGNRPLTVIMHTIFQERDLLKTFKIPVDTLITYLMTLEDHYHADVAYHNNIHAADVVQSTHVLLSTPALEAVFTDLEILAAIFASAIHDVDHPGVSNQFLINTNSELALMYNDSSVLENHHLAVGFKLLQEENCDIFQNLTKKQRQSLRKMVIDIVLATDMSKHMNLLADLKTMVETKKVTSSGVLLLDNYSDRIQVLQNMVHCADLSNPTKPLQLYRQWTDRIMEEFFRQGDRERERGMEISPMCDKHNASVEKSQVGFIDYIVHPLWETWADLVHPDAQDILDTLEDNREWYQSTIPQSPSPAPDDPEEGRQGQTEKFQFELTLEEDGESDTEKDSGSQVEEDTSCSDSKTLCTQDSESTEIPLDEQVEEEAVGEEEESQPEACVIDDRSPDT
Method: as §1

human PDE4D isozyme, sequence (Q08499 whole entry): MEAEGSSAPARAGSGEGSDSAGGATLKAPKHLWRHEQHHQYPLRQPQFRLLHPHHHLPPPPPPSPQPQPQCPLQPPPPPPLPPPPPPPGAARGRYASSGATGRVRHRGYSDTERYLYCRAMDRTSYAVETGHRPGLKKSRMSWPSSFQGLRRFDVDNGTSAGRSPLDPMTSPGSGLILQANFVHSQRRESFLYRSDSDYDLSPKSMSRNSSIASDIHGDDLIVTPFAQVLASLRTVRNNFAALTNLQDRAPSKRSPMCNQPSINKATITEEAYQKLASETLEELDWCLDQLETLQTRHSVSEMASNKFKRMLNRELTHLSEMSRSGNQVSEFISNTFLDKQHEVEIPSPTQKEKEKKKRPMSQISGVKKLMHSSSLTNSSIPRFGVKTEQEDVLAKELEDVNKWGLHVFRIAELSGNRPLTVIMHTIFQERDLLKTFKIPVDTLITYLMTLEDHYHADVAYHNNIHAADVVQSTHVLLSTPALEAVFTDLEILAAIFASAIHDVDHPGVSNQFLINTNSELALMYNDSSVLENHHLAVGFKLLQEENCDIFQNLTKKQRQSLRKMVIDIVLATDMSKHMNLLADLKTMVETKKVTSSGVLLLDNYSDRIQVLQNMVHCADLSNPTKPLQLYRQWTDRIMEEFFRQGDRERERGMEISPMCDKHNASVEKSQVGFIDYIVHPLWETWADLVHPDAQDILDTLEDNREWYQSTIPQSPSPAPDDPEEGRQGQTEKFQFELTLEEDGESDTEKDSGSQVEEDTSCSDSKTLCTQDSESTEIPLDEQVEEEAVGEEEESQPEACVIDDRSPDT

Compound	IC50 (human PDE4D isozyme)	IC50 (human PDE4B isozyme)	IC50 (h4B1)	IC50 (h4D7)
Oc1cccc(Cc2cc3scnc3c(-c3cccc(Cl)c3)c2F)c1 [BA-39, 3-[4-(3-chloro-phenyl)-5-fluoro-benzothiazol-6-ylmethyl]-phenol]	< 5 µM	< 5 µM	–	–
CCOC(=O)Nc1ccc(Cc2cc3scnc3c(-c3cccc(Cl)c3)c2F)cn1 [BA-40, {5-[4-(3-chloro-phenyl)-5-fluoro-benzothiazol-6-ylmethyl]-pyridin-2-yl}-carbamic acid ethyl ester]	< 5 µM	< 5 µM	–	–
Fc1c(CN2CCOCC2)cc2scnc2c1-c1cccc(Cl)c1 [BA-43, 4-(3-Chloro-phenyl)-5-fluoro-6-morpholin-4-ylmethyl-benzothiazole]	< 5 µM	< 5 µM	–	–
CC(=O)N1CCN(Cc2cc3scnc3c(-c3cccc(Cl)c3)c2F)CC1 [BA-44, 1-{4-[4-(3-Chloro-phenyl)-5-fluoro-benzothiazol-6-ylmethyl]-piperazin-1-yl}-ethanone]	< 5 µM	5 to 20 µM	–	–
CCOC(=O)NC1CCN(Cc2cc3scnc3c(-c3cccc(Cl)c3)c2F)CC1 [BA-45, {1-[4-(3-Chloro-phenyl)-5-fluoro-benzothiazol-6-ylmethyl]-piperidin-4-yl}-carbamic acid ethyl ester]	< 5 µM	5 to 20 µM	–	–
NC(=O)NC1CCN(Cc2cc3scnc3c(-c3cccc(Cl)c3)c2F)CC1 [BA-46, [1-[4-(3-Chloro-phenyl)-5-fluoro-benzothiazol-6-ylmethyl]-piperidin-4-yl]-urea]	< 5 µM	5 to 20 µM	–	–
Fc1c(CN2CCNCC2)cc2scnc2c1-c1cccc(Cl)c1 [BA-48, 4-(3-Chloro-phenyl)-5-fluoro-6-piperazin-1-ylmethyl-benzothiazole]	< 5 µM	5 to 20 µM	–	–
CCOC(=O)N1CCN(Cc2cc3scnc3c(-c3cccc(Cl)c3)c2F)CC1 [BA-49, 4-[4-(3-Chloro-phenyl)-5-fluoro-benzothiazol-6-ylmethyl]-piperazine-1-carboxylic acid ethyl ester]	< 5 µM	< 5 µM	–	–
CCNC(=O)N1CCN(Cc2cc3scnc3c(-c3cccc(Cl)c3)c2F)CC1 [BA-52, 4-[4-(3-chloro-phenyl)-5-fluoro-benzothiazol-6-ylmethyl]-piperazine-1-carboxylic acid ethylamide]	< 5 µM	20 to 40 µM	–	–
CCNC(=O)Nc1ccc(Cc2cc3scnc3c(-c3cccc(C#N)c3)c2F)cn1 [BA-53, 1-{5-[4-(3-cyano-phenyl)-5-fluoro-benzothiazol-6-ylmethyl]-pyridin-2-yl}-3-ethyl-urea]	< 5 µM	< 5 µM	–	–
O=C1CCCN1Cc1cc2scnc2c(-c2cccc(Cl)c2)c1F [BA-54, 1-[4-(3-Chloro-phenyl)-5-fluoro-benzothiazol-6-ylmethyl]-pyrrolidin-2-one]	< 5 µM	< 5 µM	–	–
CN(C)c1ccc(Cc2cc3scnc3c(-c3cccc(Cl)c3)c2F)cn1 [BA-55, {5-[4-(3-chloro-phenyl)-5-fluoro-benzothiazol-6-ylmethyl]-pyridin-2-yl}-dimethyl-amine]	< 5 µM	< 5 µM	–	–
CN(C)c1ccc(Cc2cc(-c3cccc(Cl)c3)c3ncsc3c2)cn1 [BA-58, {5-[4-(3-chloro-phenyl)-benzothiazol-6-ylmethyl]-pyridin-2-yl}-dimethyl-amine]	< 5 µM	< 5 µM	–	–
Clc1cccc(-c2cc(Cc3ccc(N4CCCC4)nc3)cc3scnc23)c1 [BA-59, 4-(3-chloro-phenyl)-6-(6-pyrrolidin-1-yl-pyridin-3-ylmethyl)-benzothiazole]	< 5 µM	20 to 40 µM	–	–
N#Cc1ccc(Cc2cc3scnc3c(-c3cccc(Cl)c3)c2F)cn1 [BA-60, 5-[4-(3-chloro-phenyl)-5-fluoro-benzothiazol-6-ylmethyl]-pyridine-2-carbonitrile]	< 5 µM	< 5 µM	–	–
Fc1c(Cc2ccc(N3CCC3)nc2)cc2scnc2c1-c1cccc(Cl)c1 [BA-61, 6-(6-azetidin-1-yl-pyridin-3-ylmethyl)-4-(3-chloro-phenyl)-5-fluoro-benzothiazole]	< 5 µM	< 5 µM	–	–
Nc1ccc(Cc2cc3scnc3c(-c3cccc(Cl)c3)c2F)cn1 [BA-63, 5-[4-(3-chloro-phenyl)-5-fluoro-benzothiazol-6-ylmethyl]-pyridin-2-ylamine]	< 5 µM	< 5 µM	–	–

Compound	IC50 (human PDE4D isozyme)	IC50 (human PDE4B isozyme)	IC50 (h4B1)	IC50 (h4D7)
CN(C)CC(=O)Nc1ccc(Cc2cc3scnc3c(-c3cccc(Cl)c3)c2F)cn1 [BA-64, N-{5-[4-(3-chloro-phenyl)-5-fluoro-benzothiazol-6-ylmethyl]-pyridin-2-yl}-2-dimethylamino-acetamide]	< 5 µM	< 5 µM	–	–
CCNC(=O)Nc1ccc(Cc2cc(-c3cccc(Cl)c3)c3nc(C)sc3c2)cn1 [BA-67, 1-{5-[4-(3-chloro-phenyl)-2-methyl-benzothiazol-6-ylmethyl]-pyridin-2-yl}-3-ethyl-urea]	< 5 µM	< 5 µM	–	–
O=C1CN(Cc2cc3scnc3c(-c3cccc(Cl)c3)c2F)CCN1 [BA-71, 4-[4-(3-Chloro-phenyl)-5-fluoro-benzothiazol-6-ylmethyl]-piperazin-2-one]	< 5 µM	< 5 µM	–	–
CCNC(=O)N1CCN(Cc2cc3scnc3c(-c3cccc(Cl)c3)c2F)C(=O)C1 [BA-72, 4-[4-(3-Chloro-phenyl)-5-fluoro-benzothiazol-6-ylmethyl]-3-oxo-piperazine-1-carboxylic acid ethylamide]	< 5 µM	< 5 µM	–	–
O=C1CNCCN1Cc1cc2scnc2c(-c2cccc(Cl)c2)c1F [BA-73, 1-[4-(3-Chloro-phenyl)-5-fluoro-benzothiazol-6-ylmethyl]-piperazin-2-one]	< 5 µM	< 5 µM	–	–
NC(=O)[C@@H]1CCN1c1ccc(Cc2cc3scnc3c(-c3cccc(Cl)c3)c2F)cn1 [BA-74, (S)-1-{5-[4-(3-chloro-phenyl)-5-fluoro-benzothiazol-6-ylmethyl]-pyridin-2-yl}-azetidine-2-carboxylic acid amide]	< 5 µM	< 5 µM	–	–
NC(=O)[C@H]1CCN1c1ccc(Cc2cc3scnc3c(-c3cccc(Cl)c3)c2F)cn1 [BA-75, (R)-1-{5-[4-(3-chloro-phenyl)-5-fluoro-benzothiazol-6-ylmethyl]-pyridin-2-yl}-azetidine-2-carboxylic acid amide]	< 5 µM	< 5 µM	–	–
Nc1nc2c(-c3cccc([N+](=O)[O-])c3)cc(Cc3ccc(F)cc3)cc2s1 [Example 1, 6-(4-fluorobenzyl)-4-(3-nitrophenyl)-benzothiazol-2-yl amine]	–	–	1 to 10 µM	< 1 µM
Nc1nc2c(-c3cccc([N+](=O)[O-])c3)cc(Cn3ccnc3)cc2s1 [Example 2, 6-imidazol-1-ylmethyl-4-(3-nitro-phenyl)-benzothiazol-2-ylamine]	–	–	< 1 µM	< 1 µM
Nc1nc2c(-c3ccc4nonc4c3)cc(Cc3ccc(F)cc3)cc2s1 [Example 3, 4-Benzol[1,2,5]oxadiazol-5-yl-6-(4-fluoro-benzyl)-benzothiazol-2-yl amine]	–	–	1 to 10 µM	< 1 µM
Nc1nc2c(-c3ccc4c(c3)OCO4)cc(Cc3ccc(F)cc3)cc2s1 [Example 4, 4-Benzo[1,3]dioxol-5-yl-6-(4-fluoro-benzyl)-benzothiazol-2-ylamine]	–	–	1 to 10 µM	< 1 µM
Nc1nc2c(-c3ccc4c(c3)OCO4)cc(C(O)c3ccc(F)cc3)cc2s1 (stereo not drawn) [Example 5, (2-Amino-4-benzo[1,3]dioxol-5-yl-benzothiazol-6-yl)-(4-fluoro-phenyl)-methanol]	–	–	–	1 to 10 µM
Cn1nccc1C(O)c1cc(-c2ccc3c(c2)OCO3)c2nc(N)sc2c1 (stereo not drawn) [Example 6, (2-Amino-4-benzo[1,3]dioxol-5-yl-benzothiazol-6-yl)-(2-methyl-2H-pyrazol-3-yl)-methanol]	–	–	10 to 20 µM	1 to 10 µM
Nc1nc2c(-c3cccc(C(F)(F)F)c3)cc(Cc3ccc(F)cc3)cc2s1 [Example 7, 6-(4-Fluoro-benzyl)-4-(3-trifluoromethyl-phenyl)-benzothiazol-2-ylamine]	–	–	1 to 10 µM	< 1 µM
Nc1ccc(Cc2cc3sc(N)nc3c(-c3cccc(Cl)c3)c2F)cc1 [Example 16, 6-(4-amino-benzyl)-4-(3-chloro-phenyl)-5-fluoro-benzothiazol-2-ylamine]	–	–	–	< 1 µM
NC(=O)NC1CCN(Cc2cc3scnc3c(-c3cccc(Cl)c3)c2F)CC1 [Example 46, [1-[4-(3-Chloro-phenyl)-5-fluoro-benzothiazol-6-ylmethyl]-piperidin-4-yl]-urea]	–	–	–	1 to 10 µM
